Measurements as given in paper PMC12301332, “Biased antagonism of a series of bicyclic CXCR2 intracellular allosteric modulators” (Frontiers in Pharmacology, 2025).

What was measured:
CXCR2 [1] = biological target: T1, CXCR2 (Homo sapiens, UniProt P25025); test: NanoBRET-based G protein activation inhibition assay (REGA-SIGN Gαi1 dissociation) in HEK293A.CXCR2 cells; assay type: cell-based; conditions: n = 3; for IC50: mean; for Imax Gαi1 (maximum observed inhibitory effect): normalized to Imax of navarixin = 100%
T1 construct: expressed in transfected cells
T1 sequence (P25025 1-360): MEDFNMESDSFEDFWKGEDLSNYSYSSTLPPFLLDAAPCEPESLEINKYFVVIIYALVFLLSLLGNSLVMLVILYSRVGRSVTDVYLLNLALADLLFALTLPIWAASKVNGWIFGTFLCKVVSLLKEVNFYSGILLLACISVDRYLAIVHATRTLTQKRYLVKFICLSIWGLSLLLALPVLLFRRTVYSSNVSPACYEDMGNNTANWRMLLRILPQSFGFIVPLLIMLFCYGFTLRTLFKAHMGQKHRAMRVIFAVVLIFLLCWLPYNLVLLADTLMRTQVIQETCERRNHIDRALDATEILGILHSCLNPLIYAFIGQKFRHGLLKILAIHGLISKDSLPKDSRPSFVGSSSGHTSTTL
Experimental: Cells were trypsinized and resuspended at 3 × 10^5 cell/mL in the growth medium, whereafter they were incubated for 2 hours at RT. Cells were transfected in suspension using FuGENE® HD Transfection Reagent at a 3:1 reagent to DNA ratio in Opti-MEMTM I Reduced-Serum Medium, with the final DNA concentration of 1 μg/μL. The transfection mixture was incubated for 10 min at RT before adding it to the cell suspension. Transfected cells were seeded at 3.0 × 10^4 cells/well in a white, clear, flat-bottom 96-well plate coated with 100 μg/mL poly-D-lysin ([…], Sigma Aldrich) and incubated for 48 h at 37°C and 5% CO2. […] (2023)]. Following the 48-h incubation period, cells were washed with the assay buffer. Compounds were serially diluted in 1:500 Nano-Glo® Vivazine^TM working solution (#N2581, Promega), and 90 μL of compound/Vivazine mix was added, followed by incubation for 45 min at 37°C and 5% CO2. Plates were transferred to the FLIPR Penta system (Molecular Devices) at 37°C, and all steps onward are automated and performed by the FLIPR Penta system. After a 10-min equilibration period, the baseline BRET signal was determined by five consecutive reads followed by automatic administration of 10 μL of 10× ligand (Table 1) to the cell plate. Changes in the BRET signal was measured for 10 min, with each read spaced by 2.5 s. […] BRET ratios were extracted from ScreenWorks software (Molecular Devices) and represent the ratio between the acceptor emission of […]2 or mNG (G protein or β-arrestin recruitment, respectively) and NLuc donor emission. The basal BRET ratio was defined as the average BRET ratio of the five consecutive readings preceding ligand addition. Changes in BRET values post ligand administration (ΔBRET) were calculated for each well as a percentage difference to the previously defined basal BRET ratio. Average ΔBRET values were baseline corrected by subtracting the average negative control BRET ratio (unstimulated condition). […] AUCs were normalized to the positive control (stimulated condition); whereafter, dose-response curves were fitted to log (inhibitor) vs response (three parameters) in GraphPad 10.2.0 (GraphPad Software). […] Calculation 1: calculation of the BRET signal. • 1. […] NC correctedΔBRET=Δ[…]. • 4. a. Neg AUC of NC correctedΔBRET=Gα activation read out. b. Pos AUC of NC correctedΔBRET=β-arrestin recruitment.

CXCR2 [2] = biological target: T1, CXCR2; test: Bias analysis (bias plot, bias index) of β-arrestin1 recruitment inhibition versus Gαi1 activation inhibition, navarixin as reference; assay type: cell-based; conditions: for differences in bias index between the various CXCR2 ligands (H2): one-way ANOVA followed by Tukey's test; for bias index vs navarixin, statistical significance (H1): one-sample T-test
Experimental: For signaling bias calculations, constraints were set to bottom values equal to zero. The calculated top values generated by nonlinear fit log (inhibitor) vs response (three parameters) in GraphPad 10.2.1 were taken as Imax. […] The bias index values were calculated, as is shown in calculation 2. Briefly, log(Imax/IC50) was calculated. […] Finally, the bias index was calculated by subtracting the ∆log (Imax/IC50) of the tested compound from the stated reference pathway from that of the pathway of interest. […] The statistical significance of H1 was evaluated using a one-sample T-test with Benjamini-Hochberg correction applied for multiple comparisons, whereas H2 was assessed using a one-way ANOVA followed by Tukey’s test.
Bias index=∆LogImax/IC50P1:β−arr1−∆LogImax/IC50P2:Gai1 .
Bias plots are equimolar comparisons between the two pathways of interest.

Row | IC50 (CXCR2 [1]; CXCL1 at EC80) [µM] | Imax Gαi1 (maximum observed inhibitory effect) (CXCR2 [1]; CXCL1 at EC80) [%] | IC50 (CXCR2 [1]; CXCL2 at EC80) [µM] | Imax Gαi1 (maximum observed inhibitory effect) (CXCR2 [1]; CXCL2 at EC80) [%] | IC50 (CXCR2 [1]; CXCL3 at EC80) [µM] | Imax Gαi1 (maximum observed inhibitory effect) (CXCR2 [1]; CXCL3 at EC80) [%] | IC50 (CXCR2 [1]; CXCL5 at EC80) [µM] | Imax Gαi1 (maximum observed inhibitory effect) (CXCR2 [1]; CXCL5 at EC80) [%] | IC50 (CXCR2 [1]; CXCL6 at EC80) [µM] | Imax Gαi1 (maximum observed inhibitory effect) (CXCR2 [1]; CXCL6 at EC80) [%] | IC50 (CXCR2 [1]; CXCL7 at EC80) [µM] | Imax Gαi1 (maximum observed inhibitory effect) (CXCR2 [1]; CXCL7 at EC80) [%] | IC50 (CXCR2 [1]; CXCL8 at EC80) [µM] | Imax Gαi1 (maximum observed inhibitory effect) (CXCR2 [1]; CXCL8 at EC80) [%] | differences in bias index between the various CXCR2 ligands (H2) (CXCR2 [2]) | bias index vs navarixin, statistical significance (H1) (CXCR2 [2]; CXCL1-induced responses) | SMILES | bias index vs navarixin, statistical significance (H1) (CXCR2 [2]; CXCL1-, CXCL2-, CXCL5-, CXCL6-, and CXCL8-induced responses) | bias index vs navarixin, statistical significance (H1) (CXCR2 [2]; CXCL2, CXCL5, and CXCL6 responses)
1 | > 15 | <50 | > 15 | <50 | > 15 | <50 | 13.1 ± 4.76 | 100 | > 15 | <50 | 10.1 ± 4.8 | 98.43 ± 2.62 | > 15 | <50 | statistically significant |  | CC(CCO)Nc1nc(SCc2cccc(F)c2F)nc2[nH]nnc12 (stereo not drawn) [MVH-33] |  | 
2 | 2.08 ± 0.42 | 96.47 ± 3.69 | 1.21 ± 0.63 | 100 | 14.8 ± 10.1 | 100 | 1.43 ± 0.71 | 98.52 ± 2.04 | 1.06 ± 0.75 | 100 | 0.75 ± 0.26 | 94.94 ± 3.57 | 2.49 ± 1.24 | 100 |  |  | CC(CO)Nc1nc(SCc2cccc(F)c2F)nc2oncc12 (stereo not drawn) [MVH-24] | nonsignificantly different from navarixin | 
3 | > 15 |  | 6.24 ± 1.15 | 100 | > 15 |  | 10.2 ± 6.52 | 93.7 ± 5.53 | 7.53 ± 1.74 |  | 10.9 ± 9.58 |  | > 15 |  | statistically significant | highly significant | CC(CO)Nc1nc(SCc2cccc(F)c2F)nc2cnccc12 (stereo not drawn) [MVH-3] |  | nonsignificantly different from navarixin
